# Literature values in patent publication US9060950B2, “Emetic embedded capsule” (Paul H. Rosenberg, Proximate Concepts, LLC., priority 2005, dated 2015).
# Structures can show the parent of a compound that is named as a salt.
# Legend:
# [1] = not given; remark: listed apart in the source
structure (smiles),measurement,setting,value
Cc1nnc2n1-c1ccc(Cl)cc1C(c1ccccc1Cl)=NC2 [Triazolm],amount ingested after which manifestations of overdose may occur,ingestion,2 mg
O.O.O.O.O.O.O.O=S(=O)([O-])[O-].[Zn+2] [Zinc sulfate heptahydrate],amount ingested that causes emesis,[1],0.6 grams
"CC(=O)Nc1ccc(O)cc1 [acetaminophen, Acetaminophen]",amount ingested following which hepatic toxicity may occur,in vivo,7.5 grams
same,amount ingested following which fatalities may occur,ingestion,15 grams
"CNCCC(Oc1ccc(C(F)(F)F)cc1)c1ccccc1 (centres unmarked) [fluoxetine hydrochloride, Fluoxetine hydrochloride]",ingested amount reported to have caused death,ingestion,520 mg
